Experimental findings from patent US20260226101A1, “PEPTIDE WITH ANTI-INFLAMMATORY AND ANTI-MICROBIAL ACTIVITY” (priority 2023, published 2026) are described below.

What is called viability is the share of living cells, or the viability signal relative to a control. A higher viability goes with better survival.

Data set [1] in a line: in vitro. It is filed as cell-based, murine. To be noted: mouse. How it is done: Cell viability of synthetic peptides on the growth of RAW264.7 cells was measured using the methyl thiazolyl tetrazolium (MTT) assay after 48 h. Briefly, exponentially growing macrophages RAW264.7 cells were mechanically scraped, plated at a density of 7×10^3 cells in 100 μl were seeded into each well of a 96-well plate then incubated for 12 h at 37° C. under 5% CO2, and then the cells are treated with test peptides: IS 111 ([…]) or dexamethasone ([…]) cells were incubated at 37° C. in the presence of 5% CO2 for 42 h. After incubation, the morphology of cells was examined under a microscope. Following incubation, MTT was added to the cells (20 μL at 5 mg/mL MTT dissolved in 1×PBS) and incubated for 4 hours in the presence of 5% CO2 at 37° C. Formazan crystals were dissolved by the addition of 100 μL of 100% DMSO per well. Plates were then gently swirled for 5 min at room temperature to dissolve the precipitate. Absorbance was monitored at 575 nm using a microplate reader. Maximum cytotoxicity (100%) was determined by cells incubated with 1% Triton X-100; PBS was used as a negative control. Cells without treatment were considered as control. The average absorbance for each sample group was used to evaluate cell viability.
Optical density (O.D.) was calculated as the difference between the absorbance at the reference wavelength and that at the test wavelength. The relative cell viability was determined by the amount of MTT converted to the insoluble formazan salt. The data were expressed as the mean percentage of viable cells when compared with untreated cells (control). The half maximal growth inhibitory concentration (IC50) value was calculated from the line equation of the dose-dependent curve of each compound. The results were compared with the cytotoxic activity of dexamethasone, a known anti-inflammatory drug. […] Percentages of cell viability and LC50 of cells were calculated: Percent cell viability was calculated as (O.D. of drug-treated sample/control O.D.)×100. The data were expressed as percent cell viability compared with control (dimethyl sulfoxide/NS). The experiment was carried out in four samples of each concentration.
The percentages of cell viability and LC50 of cells were calculated by using the formula below.
Where Absorbance control is the DMSO 0.1%-treated cell absorbance, and Absorbance sample is the test sample-treated cell absorbance. LC50 values were derived from dose-response curves, and data were expressed as the mean of three independent experiments. Statistical analyses involved Student's t-test and one-way ANOVA.
The test peptide IS 111 cytotoxic effects on RAW 264.7 mouse […] were determined by MTT assay. […] Cell viability was measured by MTT assay based on the conversion of yellow tetrazolium salt to form a purple formazan product. The viability of the RAW 264.7 cells can be seen on table 21.

For data set [2], the system named is E. coli ATCC 8739-induced septic peritonitis. Briefly: E. coli-induced septic peritonitis model. The class given is in vivo, BALB/c mice. Conditions: administration at 1, 24 and 72 h post injection of E. coli; last time point of 8 h.
In data set [3] the test system is CLP-induced polymicrobial sepsis. Nature of the data set: Cecal ligation and puncture (CLP) polymicrobial sepsis model. It is filed as in vivo, BALB/c mice. How it is done:
Polymicrobial sepsis was induced using the CLP method described by [Wendy E. Walker, 2021; Benjamim et al. 2000], with minor modifications and the anesthetic used. Initially, the Mice were derived of food for 12 h before the CLP procedure and then anesthetized by intraperitoneal injection of ketamine (80-100 mg/kg BW) and xylazine in a dose (5-10 mg/kg) (for 20 g mice ketamine of 0.2 ml and xylazine of 0.1 ml). according to [Machado et al. 2012]. under sterile conditions a midline abdominal incision was made and then, a laparotomy of 10 mm/1 cm was performed, where the abdomen of mice was routinely disinfected and cut open in the middle to expose the abdominal cavity, and the cecum was mobilized, was then ligated below the cecal valve at the distal end of the cecum, ¾ was ligated with a sterile No. 4 thread, and punctured (CLP) with a 20-gauge needle in 2 places at the center of the distal end of the occlusal cecum and squeezed gently to extrude a small amount of intestinal contents through the perforation site to induce sepsis. The cecum was located but not ligated or punctured in the control animals. The cecum was placed back into the peritoneal cavity, and the abdominal incision was then closed in two layers with absorbable ethilon suture 5.0, and the animals were resuscitated with 0.1-0.2 mL of normal saline by subcutaneous injection. The sham group of mice had the identical operation as the treated and disease control groups, which included opening the peritoneum and exposing the bowel but without ligation or needle perforation of the cecum. Betadine/tramadol was used to relieve the pain of mice after operation. During the surgery, the […] was applied to the eyes to prevent dryness of the eyes. All the animals were returned to their cages, where they had free access to food and water. After 2 h of CLP, the treatment groups were administered with test peptides (0.6 & 1.2 mg/kg) and the standard drug through the subcutaneous & Intravenous route. To reduce variability between studies, the CLP method was always carried out by the same investigators. [Zingarelli B et al., Libert C et al., Hellman J et al., 2019].
Mice were subjected to CLP surgery and were discarded if they died during the procedure. In all the animal experiments, the test peptide IS 111 was administered by injections respectively; According to the clinical dosage regimen, IS 111 was repeatedly administered at 2 h after CLP surgery and recovery of animals from anesthesia. The mice were divided into the following treatment groups at random: BALB/c mice are used for Intravenous (IV) route of administration. In each group the half of the animals were killed after 4 and 18 hours, [Hubbard, W. J 2005; Rittirsch D 2009]. In another half of the animals, IS 111 at two doses 0.6 & 1.2 mg/kg were injected IV daily for 5 days following CLP. 0.9% Normal saline was administered in the sham group. The survival of mice was monitored for up to 18 h and the other half of the animals are continued for the survival monitored up to 7 days.
In the survival study, survival rates were determined by setting the day 0 from 0 to 18 h after surgery and continuing observation until day 7. In one set of animals/group, survival was monitored every 4 h up to 18 h and in another half subset of animals was followed for 5 days for survival assessment every 12 h after sepsis induction to verify mortality rates. The time of death was recorded as accurately as possible.
The physical activity of the mice was recorded independently by two independent observers who were blinded to treatment before sampling as previously described. In this study predetermined grading system was used with a scale of 1 (healthy) to 5 (agony). This scoring system is based on grading physical activity and food intake (table 16) using spontaneous activity of mice, reactivity to external stimuli, and spontaneous food intake to differentiate between grades 1 and 5. […]

“And” between values parts separate entries of the source, which are not always exact repeats. Equal entries are not always repeated. “Also recorded” adds a separate entry of the source. Ends that are not written are not given here.

As for “FAKKFAK [IS 111, Phe-Ala-Lys-Lys-Phe-Ala-Lys]”, in data set [1], the viability at 48 h, 1.5625 μg/mL amounted to 84.5%; the viability at 48 h, 3.125 μg/mL was determined as 91.5%; the viability at 48 h, 6.25 μg/mL came to 90.2%; the viability at 48 h, 12.5 μg/mL turned out to be 99.7%. Further, in data set [1], the viability at 48 h, 25 μg/mL came to 96.4%; the viability at 48 h, 50 μg/mL is 95%; the viability at 48 h, 100 μg/mL is 91.4%. This substance also came in with a Survival in data set [2] of 80%. In data set [3] (0.6 mg/Kg, 18 h after CLP, scale 1 (very active) to 5 (lethargic)), this substance came in with an Activity index of 2.8 ± 0.5 Grade points. For the same substance, the Lung histology result in data set [3] (0.6 mg/kg, 18 h) is “Mild lung oedema, haemorrhage, and inflammatory cell infiltration”. In addition, the “Serum IL-10” value in data set [3] (24-48 h after CLP, treatment 2 h after CLP) is “significant decrease”. For the same substance, the “Bacterial growth in the peritoneum / bacterial counts” value in data set [3] (18 h after CLP) is listed as “inhibited; also recorded: ↓bacterial counts; ↓liver & kidney”. Moreover, the Body temperature result in data set [3] (18 h after CLP surgery) is recorded as “in range of normal values”. The “IL-10 levels in serum” value in data set [3] (18 h after CLP, IV) was “increased slightly and 6 and IL-12, &↑IL-10 in serum;”. This substance also came in with a Survival percentage in data set [3] (7 days) of 80%. In addition, the “Myeloperoxidase levels in the lung” value in data set [3] (IS 111-treated mice) is “significantly decreased”. In addition, the Reduction of mortality in data set [3] (vs diseased control animals (normal saline)) amounted to 80%. In data set [3] (~60 h post-CLP (last death in disease control group)), this substance had a Mice still surviving of 80%.
